These results are taken from US8507539B2, “Potassium channel blockers and uses thereof” (Bionomics Limited, priority 2008, dated 2013).

A value given as a limit tells only on which side of the number the result lay.

Sequence of hKv1.3 (P22001 whole entry): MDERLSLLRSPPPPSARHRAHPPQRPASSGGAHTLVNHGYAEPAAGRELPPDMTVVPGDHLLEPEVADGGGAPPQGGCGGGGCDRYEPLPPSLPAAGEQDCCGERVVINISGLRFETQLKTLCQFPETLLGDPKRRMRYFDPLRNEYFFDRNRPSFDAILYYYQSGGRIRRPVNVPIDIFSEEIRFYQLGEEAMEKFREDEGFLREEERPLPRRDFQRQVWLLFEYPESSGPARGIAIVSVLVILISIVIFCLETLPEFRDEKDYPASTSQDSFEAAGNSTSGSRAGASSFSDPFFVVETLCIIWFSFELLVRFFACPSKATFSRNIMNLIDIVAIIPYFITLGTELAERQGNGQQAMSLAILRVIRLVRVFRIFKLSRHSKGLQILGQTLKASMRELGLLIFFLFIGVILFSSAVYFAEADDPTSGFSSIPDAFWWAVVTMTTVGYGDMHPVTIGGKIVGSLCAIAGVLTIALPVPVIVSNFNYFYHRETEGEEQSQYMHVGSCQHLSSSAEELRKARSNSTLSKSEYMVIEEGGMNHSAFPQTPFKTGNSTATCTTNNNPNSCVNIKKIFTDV

The assay has as its target hKv1.3 (Homo sapiens, UniProt P22001). As to the kind of experiment: Whole-cell patch-clamp block of Kv1.3 current in CHO cells stably expressing hKv1.3. The settings on record: CHO cells stably expressing hKv1.3, whole-cell patch clamp; reported as ranges; read-out: IC50 (Kv1.3). The assay is classed as cell-based. The protocol: The effectiveness of the generated compounds in blocking the Kv1.3 current was assayed on CHO cells stably expressing hKv1.3. Cells were grown in F12 Kaighns' medium supplemented with 10% fetal calf serum, 2 mM L-glutamine, 1 mM Na^+ pyruvate, 100 units/ml penicillin, 100 Fg/ml streptomycin and 500 μg/ml G418 (to keep them under selection pressure). Kv1.3 currents were measured using the whole-cell configuration of the patch-clamp technique and were evoked by 500 ms depolarising voltage pulses to +40 mV from a holding potential of −80 mV at 30 sec intervals. Cells were continuously bathed in Ringers solution containing (mM): 160 NaCl, 4.5 KCl, 2.5 CaCl2, 1 MgCl2, 10 HEPES, pH 7.4, 290-310 mOsm. The internal (pipette) solution contained (mM): 134 KF, 2 MgCl2, 10 HEPES, 10 EGTA (pH 7.2, 290-310 mOsm). Series resistance compensation (60-80%) was applied when the peak current amplitude exceeded 2 nA. Compounds initially dissolved in DMSO were diluted in bath solution (final DMSO concentration 0.5%) and applied directly to the recording chamber at increasing concentrations allowing ample time for steady state block to be achieved between each concentration. Each compound was tested at 4-5 different concentrations in triplicate. IC50 values were determined by fitting the average normalised reduction of the current integral to the Hill equation.
In general terms: The patch-clamp technique gives a direct electrical read-out from membranes.
Usually IC50 stands for the concentration at which inhibition is half-maximal. With `CC(=O)c1c(OCCn2ccnc2C)c(OCCC(C)c2ccc(F)cc2)c2oc(C(C)C)nc2c1C` (stereo not drawn) [Example 34, 5-Acetyl-7-[3-(4-fluorophenyl)butoxy]-2-isopropyl-1-4-methyl-6-[2-(2-methyl-1H-imidazol-1-yl)ethoxy]-benzo[d]oxazole], the concentration for half-maximal inhibition (IC50) was 200 to 1000 nM.
On to `CC(=O)c1c(OCCc2ccccn2)c(OCCC(C)c2ccc(F)cc2)c2oc(C(F)(F)F)nc2c1C` (stereo not drawn) [Example 29, 5-Acetyl-7-[3-(4-fluorophenyl)butoxy]-4-methyl-6-(2-pyridin-2-yl-ethoxy)-2-trifluoromethyl-benzo[d]oxazole], for which the IC50 lay in the range of 50 to 200 nM.
As for `CC(=O)c1c(OCCN2CCOCC2)c(OCCC(C)c2ccc(F)cc2)c2oc(C)nc2c1C` (stereo not drawn) [Example 6c, 5-Acetyl-7-[3-(4-fluorophenyl)butoxy]-2,4-dimethyl-6-(2-morpholin-4-yl-ethoxy)-benzooxazole], the IC50 was below 50 nM.
Consider `CC(=O)c1c(OCCN2CCS(=O)(=O)CC2)c(OCCC(C)c2ccc(F)cc2)c2oc(C)nc2c1C` (stereo not drawn) [Example 15, 5-Acetyl-6-[2-(1,1-dioxo-thiomorpholin-4-yl)-ethoxy]-7-[3-(4-fluorophenyl)butoxy]-2,4-dimethyl-benzooxazole], for which the 50% inhibitory concentration (IC50) is below 50 nM.
In the case of `CC(=O)c1c(OCCN2CCOCC2)c(OCCC(C)c2ccc(F)cc2)c2oc(C)nc2c1Cl` (stereo not drawn) [Example 38h, 5-Acetyl-4-chloro-7-(3-(4-fluorophenyl)butoxy)-6-(2-(morpholin-4-yl)ethoxy)-2-methyl-benzo[d]oxazole] it was 50 to 200 nM.
For `CC(=O)c1c(OCCn2nnnc2N)c(OCCC(C)c2ccc(F)cc2)c2oc(C)nc2c1C` (stereo not drawn) [Example 11b, 5-Acetyl-6-[2-(5-amino-tetrazol-1-yl)-ethoxy]-7-[3-(4-fluorophenyl)butoxy]-2,4-dimethyl-benzooxazole], the concentration for half-maximal inhibition (IC50) was in the range of 50 to 200 nM.
In the case of `CC(=O)c1c(OCCN2CCC(C)(O)CC2)c(OCCC(C)c2ccc(F)cc2)c2oc(C)nc2c1C` (stereo not drawn) [Example 19, 5-Acetyl-7-[3-(4-fluorophenyl)butoxy]-6-[2-(4-hydroxy-4-methyl-piperidin-1-yl)-ethoxy]-2,4-dimethyl-benzooxazole] it was 50 to 200 nM; in that of `CC(=O)c1c(OCCn2ccnc2)c(OCCC(C)c2ccc(F)cc2)c2oc(C)nc2c1C` (stereo not drawn) [Example 10b, 5-Acetyl-7-[3-(4-fluorophenyl)butoxy]-6-(2-imidazol-1-yl-ethoxy)-2,4-dimethyl-benzooxazole], 50 to 200 nM.
In the case of `CC(=O)c1c(OCCN2CCOCC2)c(OCCC(C)c2ccc(F)cc2)c2ocnc2c1C` (stereo not drawn) [Example 2d, 5-Acetyl-7-[3-(4-fluorophenyl)butoxy]-4-methyl-6-(2-morpholin-4-yl-ethoxy)benzooxazole], the concentration for half-maximal inhibition (IC50) is below 50 nM.
For `CC(=O)c1c(OCCN2CCOCC2)c(OCCC(C)c2ccc(F)cc2)c2oc(C3CC3)nc2c1C` (stereo not drawn) [Example 35d, 5-Acetyl-7-[3-(4-fluorophenyl)butoxy]-2-cyclopropyl-4-methyl-6-(2-morpholin-4-yl-ethoxy)-benzo[d]oxazole], the IC50 lay in the range of 50 to 200 nM.
As to `CC(=O)c1c(OCC[n+]2ccc(N)cc2)c(OCCC(C)c2ccc(F)cc2)c2oc(C)nc2c1C` (stereo not drawn) [Example 21, 5-Acetyl-6-(2-(4-aminopyridin-1-ium)ethoxy)-7-[3-(4-fluorophenyl)butoxy]-2,4-dimethyl-benzo[d]oxazole chloride], the IC50 is above 1000 nM.
In the case of `CC(=O)c1c(OCCN(C)C)c(OCCC(C)c2ccc(F)cc2)c2oc(C)nc2c1C` (stereo not drawn) [Example 7, 5-Acetyl-6-(2-dimethylaminoethoxy)-7-[3-(4-fluorophenyl)butoxy]-2,4-dimethyl-benzooxazole] it was 200 to 1000 nM; in that of `CC(=O)c1c(OCCN2CCN(C)CC2)c(OCCC(C)c2ccc(F)cc2)c2oc(C)nc2c1C` (stereo not drawn) [Example 25], 200 to 1000 nM.
With `CCN(CC)CCOc1c(C(C)=O)c(C)c2nc(C)oc2c1OCCC(C)c1ccc(F)cc1` (stereo not drawn) [Example 20, 5-Acetyl-6-(2-diethylamino-ethoxy)-7-[3-(4-fluorophenyl)butoxy]-2,4-dimethyl-benzooxazole], the IC50 was 200 to 1000 nM.
For the compound `CC(=O)c1c(OCCN=C(N(C)C)N(C)C)c(OCCC(C)c2ccc(F)cc2)c2oc(C)nc2c1C` (stereo not drawn) [Example 23, 5-Acetyl-6-(2-(N,N,N′,N′-tetramethylguanidinium)ethoxy)-7-[3-(4-fluorophenyl)butoxy]-2,4-dimethyl-benzo[d]oxazole chloride], the IC50 was in the range of 200 to 1000 nM.
In the case of `CC(=O)c1c(OCCN2CCOCC2)c(OCCCc2ccccc2)c2oc(C)nc2c1Cl` [Example 37j] it was 200 to 1000 nM; in that of `CC(=O)c1c(OCCN(C)C)c(OCCC(C)c2ccc(F)cc2)c2ocnc2c1C` (stereo not drawn) [Example 4b, 5-Acetyl-7-[3-(4-fluorophenyl)butoxy]-4-methyl-6-(2-N,N-dimethylamino-ethoxy)benzooxazole], 200 to 1000 nM; in that of `CC(=O)c1c(OC2CN(C3CCCC3)C2)c(OCCC(C)c2ccc(F)cc2)c2oc(C)nc2c1C` (stereo not drawn) [Example 41b], 50 to 200 nM.
As to `CC(=O)c1c(OCCN2CCOCC2)c(OCCC(C)c2ccc(F)cc2)c2oc(C(F)(F)F)nc2c1C` (stereo not drawn) [Example 28c, 5-Acetyl-7-[3-(4-fluorophenyl)butoxy]-4-methyl-6-(2-morpholin-4-yl-ethoxy)-2-trifluoromethyl-benzooxazole], the IC50 fell in the range of 50 to 200 nM.
In the case of `CC(=O)c1c(OCCn2ccnc2C)c(OCCC(C)c2ccc(F)cc2)c2oc(C)nc2c1C` (stereo not drawn) [Example 16, 5-Acetyl-7-[3-(4-fluorophenyl)butoxy]-2,4-dimethyl-6-[2-(2-methylimidazol-1-yl)-ethoxy]-benzooxazole], the IC50 lay within 50 to 200 nM.
For `CC(=O)c1c(OCCN2CCOCC2)c(OCCC(C)c2ccc(F)cc2)c2oc(C(C)C)nc2c1C` (stereo not drawn) [Example 32c, 5-Acetyl-7-[3-(4-fluorophenyl)butoxy]-2-isopropyl-4-methyl-6-(2-morpholin-4-O-ethoxy)-benzo[d]oxazole], the concentration for half-maximal inhibition (IC50) is below 50 nM.
As for `CC(=O)c1c(OCCN2CCOCC2)c(OCCCc2ccccc2)c2ocnc2c1C` [Example 1i, 5-Acetyl-4-methyl-6-(2-morpholinoethoxy)-7-(3-phenylpropoxy)-benzo[d]oxazole], the half-maximal inhibitory concentration (IC50) was 50 to 200 nM.
Then `CC(=O)c1c(OCCc2cccc[n+]2[O-])c(OCCC(C)c2ccc(F)cc2)c2oc(C)nc2c1C` (stereo not drawn) [Example 9, 2-(2-(5-acetyl-7-(3-(4-fluorophenyl)butoxy)-2,4-dimethylbenzo[d]oxazol-6-yloxy)ethyl)pyridine 1-oxide], with 200 to 1000 nM.
Regarding `Cc1nc2c(C)c(C(C)O)c(OCCN3CCSCC3)c(OCCC(C)c3ccc(F)cc3)c2o1` (stereo not drawn) [Example 27, 4-(1-Hydroxyethyl)-7-[3-(4-fluorophenyl)butoxy]-2,4-dimethyl-6-(2-thiomorpholin-4-ylethoxy)-benzo[d]oxazole], the IC50 was below 50 nM.
`CC(=O)c1c(OC2CCN(C3CCCC3)CC2)c(OCCC(C)c2ccc(F)cc2)c2oc(C)nc2c1C` (stereo not drawn) [Example 40c]: the concentration for half-maximal inhibition (IC50) is 50 to 200 nM.
As to `CC(=O)c1c(OCCN2CCCC(F)(F)C2)c(OCCC(C)c2ccc(F)cc2)c2oc(C)nc2c1Cl` (stereo not drawn) [Example 39, 5-Acetyl-4-chloro-7-(3-(4-fluorophenyl)butoxy)-6-(2-(3,3-difluoropiperidin-1-yl)ethoxy)-2-methyl-benzo[d]oxazole], the concentration for half-maximal inhibition (IC50) fell in the range of 50 to 200 nM.
In the case of `CC(=O)c1c(OCCN2CCCC(F)(F)C2)c(OCCC(C)c2ccc(F)cc2)c2oc(C(C)C)nc2c1C` (stereo not drawn) [Example 33b, 5-Acetyl-6-[2-(3,3-difluoropiperidin-1-yl)ethoxy]-7-[3-(4-fluorophenyl)butoxy]-2-isopropyl-4-methylbenzo[d]oxazole] it was 50 to 200 nM; in that of `CC(=O)c1c(OCCc2ccccn2)c(OCCC(C)c2ccc(F)cc2)c2ocnc2c1C` (stereo not drawn) [Example 3, 5-Acetyl-7-[3-(4-fluorophenyl)butoxy]-4-methyl-6-(2-pyridin-2-yl-ethoxy)benzooxazole], below 50 nM.
Consider `CC(=O)c1c(OCCn2nnc(N)n2)c(OCCC(C)c2ccc(F)cc2)c2oc(C)nc2c1C` (stereo not drawn) [Example 11a, 5-Acetyl-6-[2-(5-aminotetrazol-2-yl)-ethoxy]-7-[3-(4-fluorophenyl)butoxy]-2,4-dimethyl-benzooxazole], for which the IC50 is below 50 nM.
With `CC(=O)c1c(OCCN)c(OCCC(C)c2ccc(F)cc2)c2oc(C)nc2c1C` (stereo not drawn) [Example 22, 5-Acetyl-6-(2-aminiumethoxy)-7-[3-(4-fluorophenyl)butoxy]-2,4-dimethyl-benzo[d]oxazole chloride], the IC50 lay within 200 to 1000 nM.
Consider `CC(=O)c1c(OCCN2CCCC(F)(F)C2)c(OCCC(C)c2ccc(F)cc2)c2oc(C)nc2c1C` (stereo not drawn) [Example 43, 5-Acetyl-7-[3-(4-fluorophenyl)butoxy]-6-[2-(3,3-difluoropiperidin-1-yl)-ethoxy]-2,4-dimethyl-benzooxazole], for which the 50% inhibitory concentration (IC50) is below 50 nM.
`CC(=O)c1c(OCCN2CCOCC2)c(OCCC(C)c2ccc(F)cc2)c2oc(C(F)F)nc2c1C` (stereo not drawn) [Example 30c, 5-Acetyl-7-[3-(4-fluorophenyl)butoxy]-6-(2-morphin-4-yl-ethoxy)-4-methyl-2-difluoromethyl-benzo[d]oxazole]: the IC50 lay within 50 to 200 nM.
Then `CC(=O)c1c(OCCc2ccccn2)c(OCCC(C)c2ccc(F)cc2)c2oc(C)nc2c1C` (stereo not drawn) [Example 8, 5-Acetyl-7-[3-(4-fluorophenyl)butoxy]-2,4-dimethyl-6-(2-pyridin-2-yl-ethoxy)-benzooxazole], with below 50 nM.
